Measured values from PMC7756341, “Liposomal FRET Assay Identifies Potent Drug‐Like Inhibitors of the Ceramide Transport Protein (CERT)” (Chemistry (Weinheim an Der Bergstrasse, Germany), 2020).

What follows are molecules tested against T1, CERT (Homo sapiens, UniProt Q9Y5P4) (assay: Liposomal FRET CERT transfer assay (NBD-Cer/NR-Cer), 96-well). Details: dose-response.
T1 construct: made in house; host or cells: E. coli BL21 (DE3), pET-28a(+)
T1 sequence (Q9Y5P4 1-598 isoform Q9Y5P4-2): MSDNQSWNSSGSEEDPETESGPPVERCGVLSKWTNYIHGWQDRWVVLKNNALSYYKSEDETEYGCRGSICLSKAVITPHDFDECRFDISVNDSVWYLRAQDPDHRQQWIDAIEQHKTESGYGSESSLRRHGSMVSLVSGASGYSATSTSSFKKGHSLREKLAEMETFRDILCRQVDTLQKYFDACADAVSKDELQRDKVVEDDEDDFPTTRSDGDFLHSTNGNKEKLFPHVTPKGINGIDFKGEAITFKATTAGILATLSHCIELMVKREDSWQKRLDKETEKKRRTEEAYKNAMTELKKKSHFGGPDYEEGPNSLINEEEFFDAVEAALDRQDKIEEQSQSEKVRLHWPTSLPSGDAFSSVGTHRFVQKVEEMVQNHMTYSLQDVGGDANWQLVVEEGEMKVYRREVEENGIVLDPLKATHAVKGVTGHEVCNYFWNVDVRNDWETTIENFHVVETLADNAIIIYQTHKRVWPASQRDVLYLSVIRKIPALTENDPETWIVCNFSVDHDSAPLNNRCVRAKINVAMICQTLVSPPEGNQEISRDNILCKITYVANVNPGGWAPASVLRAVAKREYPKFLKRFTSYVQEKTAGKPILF
Assay type: biochemical
Source text: 2. Assessment of CERT-transfer Activity
2.1 Reagents and materials
Egg phosphatidylcholine (PC) and egg phosphatidylethanolamine (PE) were purchased from Sigma. Fluorescence (nitrobenzoxadiazole (NBD), 7-Methoxycumarin-3-carboxylat (MCC), 9-Diethylamino-5-oxo-5H-benzo[a]phenoxazin-2-yl (NR)) labeled-ceramide, were chemically synthesized (section 5). (1R,3S) and (1R, 3R) -N-(3Hydroxy-1-hydroxymethyl-3-phenylpropyl)- dodecamide (HPA-12) were synthesized as previously described.
Two donor and acceptor liposomes were prepared one acts as donor liposome (NBD-Cer or MCC-Cer) and the other as acceptor liposome (NR-Cer or NBD-Cer). The donor and acceptor liposomes were mixed in proper percentage for establishing two fluorescence resonance energy transfer (FRET) systems (MCC/NBD-ceramide system, or NBD/ NR-ceramide system). The stock solutions of the phospholipids and the fluorescently-labeled ceramide were prepared by dissolving in a mixture of methanol:chloroform (1:1). The liposomes were prepared by mixing […] phosphatidylcholine, 333 µmol phosphatidylethanolamine, and […] fluorescently-labeled ceramide (4:1:1 molar ratio) in siliconized Eppendorf tubes. The mixture was dried under argon stream to yield a waxy lipid film. The obtained waxy residue was hydrated with Tris.HCl buffer (1mL, 2 mM, pH 7.4) to a final concentration of 2 mM and the resulting mixture was vortexed for 1 min. The lipid mixture was subjected to 6 freeze-thawing cycles with liquid nitrogen and shaking incubator at 37 °C. Afterwards, the lipid suspension was sonicated with a Cup-Horn sonicator for 20 sec, followed by vigorous shaking on vortex for 1 min. Finally, the lipid mixture was extruded with a mini extruder (Avanti polar lipids) by forcing the suspension through two polycarbonate filters with 100 nm pore size for 13 times to afford a solution of liposome type.
2.4 Development of high throughput screening CERT-assay (96-well plate format) The assay was performed in non-binding clear-bottom 96-well microplate (Greiner Bio-One). […] The plate was placed in the microplate reader (LABTECH) at 30°C with shaking. The fluorescence was measured from the bottom over 1h (number of cycles 35, delay 70 sec) with excitation filter 485 nm and emission filter 640 nm (for NBD-Cer/NR-ceramide FRET system) or excitation filter 347 nm and emission filter 536 nm (for Coumarin (MMC-Cer), NBD-ceramide (NBD-Cer) FRET system). The transfer efficiency was calculated using the formula: Ix = I0(À1-X)/I(À2-Y), where À1 is the average of the florescence of the control of liposome mixture in Tris.HCl buffer, X is the average of the fluorescence of the buffer alone, À2 is the fluorescence average of the assay mixture, Y is the fluorescence average of the CERT aliquot with […]

Row | SMILES | activity in the transfer assay
1 | CCCC(=O)OCOC(=O)C1=C(C)NC(C)=C(C(=O)OC)C1c1cccc(Cl)c1Cl (stereo not shown) [6B11, Clevidipine butyrate] | high activity
2 | O=C(NC1CCN(CCCCC2(C(=O)NCC(F)(F)F)c3ccccc3-c3ccccc32)CC1)c1ccccc1-c1ccc(C(F)(F)F)cc1 [8E8, lomitapide] | high activity
3 | CC1=NN(c2ccc(C)c(C)c2)C(=O)/C1=N\Nc1cccc(-c2cccc(C(=O)O)c2)c1O [17C9, Eltrombopag] | weak dose‐response
4 | Cc1cc(C2=NOC(c3cc(Cl)cc(Cl)c3)(C(F)(F)F)C2)ccc1C(=O)NCC(=O)NCC(F)(F)F (stereo not shown) [20D5, Fluralaner] | high activity
